Reference: patent US8557767B2, “Synthetic apolipoprotein E mimicking polypeptides and methods of use” (UAB Research Foundation, priority 2007, dated 2013)

What was measured:
[1] = tested on: monocyte chemotaxis protein-1 (MCP-1); test: LPS-induced MCP-1 in HUVEC; assay type: cell-based, human
From the text: The effect of the peptide on the inflammatory response of bacterial lipopolysaccaride (LPS), a potent inducer of cytokines and cell adhesion molecules was also examined.

[2] = tested on: HepG2 cells; test: Apo A-I / prebeta-HDL secretion by HepG2 cells; assay type: cell-based
[3] = tested on: MEF 1 cells with induced LDL receptors; conditions: cited from earlier work
[4] = tested on: plasma LDL from WHHL rabbits; test: Association of 125I-labelled peptide with WHHL rabbit plasma lipoproteins (CLiP); assay type: binding
Method: 100 μg of the ^125I-labelled peptide was mixed with 1 ml of plasma from 6 month old WHHL rabbit. After incubation for 1 h at room temperature, the plasma was subjected to CLiP analysis (66). Radioactivity in different fractions was determined and plotted on the CLiP profile. […] This improvement was associated with a reduction in 2 markers of oxidative stress.

[5] = tested on: C57BL/6J mice fed an atherogenic diet; test: Plasma cholesterol after one-time i.v. administration in C57BL/6J mice fed an atherogenic diet; assay type: in vivo
[6] = tested on: THP-1 monocyte derived macrophages; test: Secretion of de novo synthesized apo E by THP-1 monocyte derived macrophages; assay type: cell-based; conditions: 25 ug/10^6 cells, 35S-methionine, densitometry
Method: Bands were developed by autoradiography and quantitated by densitiometry.
THP-1 monocyte derived macrophages were metabolically labeled with ^35S-methionine in RPMI medium containing FBS. Macrophages (10^6 cells) were treated with the dual-domain peptide (25 tjg/10^6 cells) for 5. Conditioned medium was collected and cells were washed with cold PBS. Preparative cocktail containing MEM, plus lupeptin (50 tjg/ml), pepstatin A (50 tjg/ml), and aprotinin (100 kallikrein inactivating units/ml) were added to the medium to preserve oxidative and proteolytic damage. The medium from control cells and peptide-treated medium were concentrated to equal volume and loaded quantitatively on SDS-polyacrylamide gels (4 to 20% PAGE for 2.5 h at 4° C. at 125 volts). The gel was exposed to x-ray film for overnight.

[7] = tested on: apo E null mice; test: Plasma cholesterol in apo E null mice after i.v. dual-domain peptides; assay type: in vivo; conditions: iv, n=4
Method: The peptides represented are Ac-hE-18A-NH2, Ac-hE4F-NH2, and Ac-hE-Sc2F-NH2. Peptides Ac-hE-18A-NH2, Ac-hE-4F-NH2 and Ac-hE-Sc18A were administered (i.v.) to apo E null mice (n=4) and plasma cholesterol values were determined at before administration (0 min), 5 min and 2 h after administration.
As described above, peptides Ac-hE-18A-NH2, Ac-hE-4F-NH2 and Ac-hE-Sc18A were administered (iv) to apo E null mice (n=4) and plasma cholesterol values were determined at before administration (0 min), 5 min and 2 h after administration.

[8] = tested on: NZW rabbits on 1% cholesterol diet; test: Peptide administration to NZW rabbits on 1% cholesterol diet; assay type: in vivo, rabbit
Method: Administration of Ac-hE18A-NH2 to high fat diet administered rabbits with initial cholesterol values in the range of 600 mg/dl (1 week on 1% cholesterol diet). […] A 50% decrease in plasma cholesterol was observed after administration of the peptide.
This occurs through a lowering of plasma lipid hydroperoxide levels concomitant with a significant increase in the plasma paraoxonase (PON-1) activity. In the WHHL model, the LDL-R pathway is compromised, thus the accelerated atherogenic lipoprotein clearance is likely via the cell surface HSPG-mediated pathway, as described earlier in murine models (Garber, D. W. et al. Atherosclerosis. 163:229-237 2003).
It has been shown that very small amounts of D-4F, a class A amphipathic helical peptide, modifies several HDL properties (Navab, M., et al. Circulation 109:3215-3220 2004). […] NZW rabbits have been studied for hypercholesterolemia and relative LDL and β-VLDL production using diets containing different amounts of cholesterol (Holvoet, P. et al. Arterioscl. Thromb. Vasc. Biol. 17:2376-2382 1997). Thus, with 0.125% (w/w) cholesterol diet, LDL cholesterol levels increase; with 0.5% and higher cholesterol levels in the diet, […]-VLDL (containing apo B-100) increases dramatically. These β-VLDL particles contain increased amounts of oxidized lipids, thus enhancing the progression of atherosclerosis (Holvoet, P. et al. Arterioscl. Thromb. Vasc. Biol. 17:2376-2382 1997). To assess the effect of the peptide in this rabbit model, a 1% cholesterol diet fed NZW rabbits were utilized.
Rabbits responding to high cholesterol diet were randomized one week after the start of the diet to select rabbits with similar response (similar amounts of total plasma cholesterol). […] After 14 days from the first administration, plasma samples were taken from both the peptide-administered and saline administered (control) rabbits (n=3 in each group). The plasma samples from the peptide administered rabbits were not turbid, whereas the plasma samples from control rabbits were turbid. […] A second dose of peptide was administered 15 days after the first treatment. Since the cholesterol levels remained low two weeks after the second administration in peptide-administered rabbits, these and saline administered rabbits were sacrificed 51 days after the initiation of the diet. Aorta from the peptide administered and control rabbits were stained with Oil Red O. Aorta from the peptide administered rabbits had 40-50% less lesion than the control rabbit aorta.
Therefore, possible reasons for the clearance of atherogenic lipoproteins can be in addition to rapid hepatic clearance similar to the properties of apo E, modulation of HDL properties or synthesis of macrophage apo E. If this is true, this peptide may also exert its effect on endothelial function. Indeed it was observed that there is a recovery of endothelial function as studied by the acetylcholine dose-dependent aortal relaxation (FIG. 13). […] It is possible that lipid lowering can cause reduction of oxidative stress and thus inhibition of endothelial activation.
Results observed in HepG2 cells indicate that peptide associates with apo B-containing plasma lipoproteins to incorporate positive charges on the lipoprotein surface. This enables the apo B-containing lipoproteins to interact with heparan sulphate proteoglycans (HSPGs). The effect of these peptides on the mode of reduction of plasma cholesterol levels in mouse models and the two rabbit models can be determined. In NZW rabbits fed a 1% cholesterol-diet, a reduction of plasma cholesterol is observed which lasts for 14 days after the peptide administration; whereas in the WHHL rabbits, the reduction is initially rapid and returns to original levels within 3 days. Since the WHHL rabbit model is LDL-receptor defective, the differential effects of the peptide in two models can be due to differences in the receptor-mediated clearance pathways of atherogenic lipoproteins. […]

[9] = experiments where atherogenic lipoprotein reduction was observed; CLiP; cited from earlier work

In the case of “Ac-LRKLRKRLLRDWLKAFYDKVAEKLKEAF-NH2 [Ac-hE-18A-NH2]”, the “effect on MCP-1” value [1] is reported as “also inhibited”, the prebeta-HDL production ([2]; equal amount on weight basis (50 ug/ml), first overnight incubation) is reported as “produced preβ-HDL” and the “prebeta-HDL amount after second and third overnight incubation” value ([2]; fresh cell medium without peptide) is reported as “produced significant amounts”. The LDL internalization enhanced [3] was “five”, the “association with WHHL plasma lipoproteins” value ([4]; 100 ug 125I-labelled peptide in 1 ml plasma, 1 h room temperature) was “associates with LDL” and the “LOOH content of peptide-treated WHHL plasma LDL” value ([4]; compared to plasma from untreated rabbits) was “reduced amounts of LOOH”. For the same substance, the “time for which lower total cholesterol levels were observed vs control” value ([5]; 100 ug i.v. one time, continued atherogenic diet) was no less than 8 days, the “initial decrease of plasma cholesterol” value ([5]; 100 ug i.v., n=9) was greater than 65% and the “intensity of 36 kDa apo E band relative to medium of control cells” value [6] was 4 times. For the same substance, the “reduction in plasma cholesterol levels at 2 h time point” value [7] was “large reduction”, the “less aorta lesion than control (Oil Red O)” value ([8]; 3 mg/kg i.v. twice, sacrificed 51 days after initiation of diet) was 40-50% and the “amounts of VLDL and LDL in plasma” value ([8]; 3 mg/kg i.v., 14 days after first administration, n=3) was “Significantly decreased”. The “lesion by en face analysis after 50 days” value ([8]; 3 mg/kg, saline-treated control ~50% lesion coverage) was “little to no lesion”, the “decrease in plasma cholesterol” value ([8]; 5 mg/kg iv two times, n=4 (FIG. 11 legend)) was 50% and the “plasma cholesterol values at end of 14 days” value ([8]; 5 mg/kg iv two times, n=4, control in the range of 2000 mg/dl) was roughly 1000 mg/dL. For the same substance, the “plasma cholesterol less than in control rabbits at end of experiment” value ([8]; 7.5 mg/kg i.v. in two intervals one week apart) was 50%, the “duration of reduction of plasma cholesterol after peptide administration” value ([8]; NZW rabbits fed 1% cholesterol diet) was 14 days and the “endothelial function, acetylcholine dose-dependent aortal relaxation” value ([8]; aortal rings after 51 days of 1% cholesterol diet) was “vascular response almost similar to aortas obtained from rabbits on a normal diet”. The “time for which total plasma cholesterol levels were significantly decreased” value ([8]; single intravenous administration 3 mg/kg) was 15 days and the “effect on HDL levels” value [9] was “did not reduce HDL levels”.
